Several values for one entry are separate records, joined by “and”; a condition that tells them apart may be missing. Identical values can stand only once. Where a SMILES comes first, the peptide text is derived from it. Bridges are numbered along the chain shown (N, C = ends). [ ]: non-standard residue; d: D form. ξ: configuration not given here. Trp(1-CH2COOH) = N[C@@H](Cc1cn(CC(=O)O)c2ccccc12)C(=O)O; Hyp = O=C(O)[C@@H]1C[C@@H](O)CN1; Thr(3ξ) = CC(O)[C@H](N)C(=O)O; NMeNle = CCCC[C@H](NC)C(=O)O; NMeA = CN[C@@H](C)C(=O)O; Orn = NCCC[C@H](N)C(=O)O; Dab = NCC[C@H](N)C(=O)O; Dap = NC[C@H](N)C(=O)O
target: T1, Human PD-L1/PD-1 (Homo sapiens, UniProt Q9NZQ7); test: HTRF Human PD-L1/PD-1 binding assay (PD-1-Ig/PD-L1-His); conditions: PD-L1-His 10 nM, PD-1-Ig 20 nM; class symbol; read-out: HTRF Human PD-L1/PD-1 Binding Assay IC50 Range
T1 construct: TVMV protease cleavage site (C); made in house; host or cells: HEK293T cells
Outline: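 Truncated Fc-fused human PD-1 (aa 25-167) at 20 nM and His-tagged PD-L1 (aa 18-239) at 10 nM final are used, with peptides preincubated 15 min with PD-L1. Detection uses europium-cryptate anti-Ig and APC anti-His antibodies; 665/620 nm ratio.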

T1 sequence (Q9NZQ7 with tags, fused parts or gaps): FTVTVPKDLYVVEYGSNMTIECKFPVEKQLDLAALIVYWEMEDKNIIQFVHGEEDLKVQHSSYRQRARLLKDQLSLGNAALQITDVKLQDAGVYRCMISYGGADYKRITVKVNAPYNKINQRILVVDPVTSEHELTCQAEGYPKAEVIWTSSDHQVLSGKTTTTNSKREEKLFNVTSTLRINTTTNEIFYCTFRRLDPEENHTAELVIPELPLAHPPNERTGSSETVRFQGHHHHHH

`CCCC[C@H]1C(=O)N(C)[C@@H](CCCC)C(=O)N[C@@H](CCC(=O)O)C(=O)N[C@H](C(=O)NCC(N)=O)CSCC(=O)N[C@@H](Cc2ccc(OC)cc2)C(=O)N(C)[C@@H](C)C(=O)N[C@@H](CC(N)=O)C(=O)N2CCC[C@H]2C(=O)N[C@@H](CN)C(=O)N[C@@H](CCCCN)C(=O)N2C[C@H](O)C[C@H]2C(=O)N[C@@H](Cc2c[nH]c3ccccc23)C(=O)N[C@@H](CC(=O)O)C(=O)N[C@@H](Cc2c[nH]c3ccccc23)C(=O)N1C` [Example 7127] ({CH2CO}-Y(Me)[NMeA]NP[Dap]K[Hyp]WDW[NMeNle][NMeNle]ECG-NH2; thioether N-14) and `CCCC[C@H]1C(=O)N(C)[C@@H](CCCC)C(=O)N[C@@H](CCC(=O)O)C(=O)N[C@H](C(=O)NCC(N)=O)CSCC(=O)N[C@@H](Cc2ccc(OC)cc2)C(=O)N(C)[C@@H](C)C(=O)N[C@@H](CC(=O)O)C(=O)N2CCC[C@H]2C(=O)N[C@@H](CN)C(=O)N[C@@H](CCCCN)C(=O)N2C[C@H](O)C[C@H]2C(=O)N[C@@H](Cc2c[nH]c3ccccc23)C(=O)N[C@@H](CC(=O)O)C(=O)N[C@@H](Cc2c[nH]c3ccccc23)C(=O)N1C` [Example 7130] ({CH2CO}-Y(Me)[NMeA]DP[Dap]K[Hyp]WDW[NMeNle][NMeNle]ECG-NH2; thioether N-14) fall in the same range of IC50: 10 to 99.9 nM for the first, 10 to 99.9 nM for the second.

First: CCCC[C@H]1C(=O)N(C)[C@@H](CCCC)C(=O)N[C@@H](CCCN)C(=O)N[C@H](C(=O)NCC(N)=O)CSCC(=O)N[C@@H](Cc2ccc(OC)cc2)C(=O)N(C)[C@@H](C)C(=O)N[C@@H](CC(N)=O)C(=O)N2CCC[C@H]2C(=O)N[C@@H](Cc2cnc[nH]2)C(=O)N[C@@H](CCCCN)C(=O)N2C[C@H](O)C[C@H]2C(=O)N[C@@H](Cc2c[nH]c3ccccc23)C(=O)N[C@@H](CC(=O)O)C(=O)N[C@@H](Cc2c[nH]c3ccccc23)C(=O)N1C [Example 7128] ({CH2CO}-Y(Me)[NMeA]NPHK[Hyp]WDW[NMeNle][NMeNle][Orn]CG-NH2; thioether N-14)
Second: CCCC[C@H]1C(=O)N(C)[C@@H](CCCC)C(=O)N[C@@H](CCC(=O)O)C(=O)N[C@H](C(=O)NCC(N)=O)CSCC(=O)N[C@@H](Cc2ccc(OC)cc2)C(=O)N(C)[C@@H](C)C(=O)N[C@@H](CC(=O)O)C(=O)N2CCC[C@H]2C(=O)N[C@@H](Cc2cnc[nH]2)C(=O)N[C@@H](CCCCN)C(=O)N2C[C@H](O)C[C@H]2C(=O)N[C@@H](Cc2c[nH]c3ccccc23)C(=O)N[C@@H](CC(=O)O)C(=O)N[C@@H](Cc2c[nH]c3ccccc23)C(=O)N1C [Example 7131] ({CH2CO}-Y(Me)[NMeA]DPHK[Hyp]WDW[NMeNle][NMeNle]ECG-NH2; thioether N-14)
The IC50 of the first is higher: 10 to 99.9 nM for the first, 1 to 9.9 nM for the second.

First: CCCC[C@H]1C(=O)N(C)[C@@H](CCCC)C(=O)N[C@@H](CCCN)C(=O)N[C@H](C(=O)NCC(N)=O)CSCC(=O)N[C@@H](Cc2ccc(OC)cc2)C(=O)N(C)[C@@H](C)C(=O)N[C@@H](CC(=O)O)C(=O)N2CCC[C@H]2C(=O)N[C@@H](CN)C(=O)N[C@@H](CCCCN)C(=O)N2C[C@H](O)C[C@H]2C(=O)N[C@@H](Cc2c[nH]c3ccccc23)C(=O)N[C@@H](CC(=O)O)C(=O)N[C@@H](Cc2c[nH]c3ccccc23)C(=O)N1C [Example 7129] ({CH2CO}-Y(Me)[NMeA]DP[Dap]K[Hyp]WDW[NMeNle][NMeNle][Orn]CG-NH2; thioether N-14)
Second: CCCC[C@H]1C(=O)N(C)[C@@H](CCCC)C(=O)N[C@@H](CCC(=O)O)C(=O)N[C@H](C(=O)NCC(N)=O)CSCC(=O)N[C@@H](Cc2ccc(OC)cc2)C(=O)N(C)[C@@H](C)C(=O)N[C@@H](CC(=O)O)C(=O)N2CCC[C@H]2C(=O)N[C@@H](CN)C(=O)N[C@@H](CCC(=O)O)C(=O)N2C[C@H](O)C[C@H]2C(=O)N[C@@H](Cc2c[nH]c3ccccc23)C(=O)N[C@@H](CC(=O)O)C(=O)N[C@@H](Cc2c[nH]c3ccccc23)C(=O)N1C [Example 7133] ({CH2CO}-Y(Me)[NMeA]DP[Dap]E[Hyp]WDW[NMeNle][NMeNle]ECG-NH2; thioether N-14)
The IC50 of the first is lower: 1 to 9.9 nM for the first, 10 to 99.9 nM for the second.

`CCCC[C@H]1C(=O)N(C)[C@@H](CCCC)C(=O)N[C@@H](CC(C)C)C(=O)N[C@H](C(=O)NCC(N)=O)CSCC(=O)N[C@@H](Cc2ccc(OC)cc2)C(=O)N(C)[C@@H](C)C(=O)N[C@@H](CC(N)=O)C(=O)N2CCC[C@H]2C(=O)N[C@@H](CO)C(=O)N[C@@H](CCC(N)=O)C(=O)N2C[C@H](O)C[C@H]2C(=O)N[C@@H](Cc2c[nH]c3ccccc23)C(=O)N[C@@H](CO)C(=O)N[C@@H](Cc2c[nH]c3ccccc23)C(=O)N1C` [Example 7136] ({CH2CO}-Y(Me)[NMeA]NPSQ[Hyp]WSW[NMeNle][NMeNle]LCG-NH2; thioether N-14) and `CCCC[C@H]1C(=O)N(C)[C@@H](CCCC)C(=O)N[C@@H](CO)C(=O)N[C@H](C(=O)NCC(N)=O)CSCC(=O)N[C@@H](Cc2ccc(OC)cc2)C(=O)N(C)[C@@H](C)C(=O)N[C@@H](CC(N)=O)C(=O)N2CCC[C@H]2C(=O)N[C@@H](CO)C(=O)N[C@@H](CCC(N)=O)C(=O)N2C[C@H](O)C[C@H]2C(=O)N[C@@H](Cc2c[nH]c3ccccc23)C(=O)N[C@@H](CO)C(=O)N[C@@H](Cc2c[nH]c3ccccc23)C(=O)N1C` [Example 7138] ({CH2CO}-Y(Me)[NMeA]NPSQ[Hyp]WSW[NMeNle][NMeNle]SCG-NH2; thioether N-14) fall in the same range of IC50: 1 to 9.9 nM for the first, 1 to 9.9 nM for the second.

`CCCC[C@H]1C(=O)N(C)[C@@H](CCCC)C(=O)N[C@@H](CO)C(=O)N[C@H](C(=O)NCC(N)=O)CSCC(=O)N[C@@H](Cc2ccc(OC)cc2)C(=O)N(C)[C@@H](C)C(=O)N[C@@H](CC(N)=O)C(=O)N2CCC[C@H]2C(=O)N[C@@H](Cc2c[nH]cn2)C(=O)N[C@@H](CCC(N)=O)C(=O)N2C[C@H](O)C[C@H]2C(=O)N[C@@H](Cc2c[nH]c3ccccc23)C(=O)N[C@@H](CO)C(=O)N[C@@H](Cc2c[nH]c3ccccc23)C(=O)N1C` [Example 7137] ({CH2CO}-Y(Me)[NMeA]NPHQ[Hyp]WSW[NMeNle][NMeNle]SCG-NH2; thioether N-14) and `CCCC[C@H]1C(=O)N(C)[C@@H](CCCC)C(=O)N[C@@H](C(C)O)C(=O)N[C@H](C(=O)NCC(N)=O)CSCC(=O)N[C@@H](Cc2ccc(OC)cc2)C(=O)N(C)[C@@H](C)C(=O)N[C@@H](CC(N)=O)C(=O)N2CCC[C@H]2C(=O)N[C@@H](Cc2c[nH]cn2)C(=O)N[C@@H](CCC(N)=O)C(=O)N2C[C@H](O)C[C@H]2C(=O)N[C@@H](Cc2c[nH]c3ccccc23)C(=O)N[C@@H](CO)C(=O)N[C@@H](Cc2c[nH]c3ccccc23)C(=O)N1C` (stereo partly drawn) [Example 7139] ({CH2CO}-Y(Me)[NMeA]NPHQ[Hyp]WSW[NMeNle][NMeNle][Thr(3ξ)]CG-NH2; thioether N-14) fall in the same range of IC50: 1 to 9.9 nM for the first, 1 to 9.9 nM for the second.

`CCCC[C@H]1C(=O)N(C)[C@@H](CCCC)C(=O)N[C@@H](CCC(=O)O)C(=O)N[C@H](C(=O)NCC(N)=O)CSCC(=O)N[C@@H](Cc2ccc(OC)cc2)C(=O)N(C)[C@@H](C)C(=O)N[C@@H](CCN)C(=O)N2CCC[C@H]2C(=O)N[C@@H](CN)C(=O)N[C@@H](CCC(=O)O)C(=O)N2C[C@H](O)C[C@H]2C(=O)N[C@@H](Cc2c[nH]c3ccccc23)C(=O)N[C@@H](CCN)C(=O)N[C@@H](Cc2cn(CC(=O)O)c3ccccc23)C(=O)N1C` [Example 7140] ({CH2CO}-Y(Me)[NMeA][Dab]P[Dap]E[Hyp]W[Dab][Trp(1-CH2COOH)][NMeNle][NMeNle]ECG-NH2; thioether N-14) and `CCCC[C@H]1C(=O)N(C)[C@@H](CCCC)C(=O)N[C@@H](CC(C)C)C(=O)N[C@H](C(=O)NCC(N)=O)CSCC(=O)N[C@@H](Cc2ccc(OC)cc2)C(=O)N(C)[C@@H](C)C(=O)N[C@@H](CC(N)=O)C(=O)N2CCC[C@H]2C(=O)N[C@@H](CO)C(=O)N[C@@H](CCC(N)=O)C(=O)N2C[C@H](O)C[C@H]2C(=O)N[C@@H](Cc2c[nH]c3ccccc23)C(=O)N[C@@H](CO)C(=O)N[C@@H](Cc2cn(CC(=O)O)c3ccccc23)C(=O)N1C` [Example 7142] ({CH2CO}-Y(Me)[NMeA]NPSQ[Hyp]WS[Trp(1-CH2COOH)][NMeNle][NMeNle]LCG-NH2; thioether N-14) fall in the same range of IC50: 1 to 9.9 nM for the first, 1 to 9.9 nM for the second.

For `CCCC[C@H]1C(=O)N(C)[C@@H](CCCC)C(=O)N[C@@H](CC(C)C)C(=O)N[C@H](C(=O)NCC(N)=O)CSCC(=O)N[C@@H](Cc2ccc(OC)cc2)C(=O)N(C)[C@@H](C)C(=O)N[C@@H](CC(N)=O)C(=O)N2CCC[C@H]2C(=O)N[C@@H](Cc2c[nH]cn2)C(=O)N[C@@H](CCC(N)=O)C(=O)N2C[C@H](O)C[C@H]2C(=O)N[C@@H](Cc2c[nH]c3ccccc23)C(=O)N[C@@H](CO)C(=O)N[C@@H](Cc2cn(CC(=O)O)c3ccccc23)C(=O)N1C` [Example 7141] ({CH2CO}-Y(Me)[NMeA]NPHQ[Hyp]WS[Trp(1-CH2COOH)][NMeNle][NMeNle]LCG-NH2; thioether N-14), the IC50 was 1 to 9.9 nM.

For `CCCC[C@H]1C(=O)N(C)[C@@H](CCCC)C(=O)N[C@@H](CCC(=O)O)C(=O)N[C@H](C(=O)NCC(N)=O)CSCC(=O)N[C@@H](Cc2ccc(OC)cc2)C(=O)N(C)[C@@H](C)C(=O)N[C@@H](CCN)C(=O)N2CCC[C@H]2C(=O)N[C@@H](Cc2cnc[nH]2)C(=O)N[C@@H](CCC(=O)O)C(=O)N2C[C@H](O)C[C@H]2C(=O)N[C@@H](Cc2c[nH]c3ccccc23)C(=O)N[C@@H](CC(=O)O)C(=O)N[C@@H](Cc2c[nH]c3ccccc23)C(=O)N1C` [Example 7132] ({CH2CO}-Y(Me)[NMeA][Dab]PHE[Hyp]WDW[NMeNle][NMeNle]ECG-NH2; thioether N-14), the IC50 was 100 to 990 nM and 10 to 99.9 nM.

same assay, conditions: PD-L1-His 10 nM, PD-1-Ig 20 nM; read-out: HTRF Human PD-L1/PD-1 Binding Assay IC50

Work on `CCCC[C@H]1C(=O)N(C)[C@@H](CCCC)C(=O)N[C@@H](CC(C)C)C(=O)N[C@H](C(=O)NCC(N)=O)CSCC(=O)N[C@@H](Cc2ccc(OC)cc2)C(=O)N(C)[C@@H](C)C(=O)N[C@@H](CC(N)=O)C(=O)N2CCC[C@H]2C(=O)N[C@@H](Cc2c[nH]cn2)C(=O)N[C@@H](CCC(N)=O)C(=O)N2C[C@H](O)C[C@H]2C(=O)N[C@@H](Cc2c[nH]c3ccccc23)C(=O)N[C@@H](CO)C(=O)N[C@@H](Cc2c[nH]c3ccccc23)C(=O)N1C` [Example 7135] ({CH2CO}-Y(Me)[NMeA]NPHQ[Hyp]WSW[NMeNle][NMeNle]LCG-NH2; thioether N-14) yielded an IC50 of 5.6 nM.

Source: patent publication US10538555B2, “Macrocyclic inhibitors of the PD-1/PD-L1 and CD80(B7-1)/PD-L1 protein/protein interactions” (BRISTOL-MYERS SQUIBB COMPANY, priority 2014, dated 2020)
